In US10899795B2, “Modified epitopes for boosting CD4+ T-cell responses” (Katholieke Universiteit Leuven, priority 2012, dated 2021):

System: hemagglutinin-loaded dendritic cells
Format: cell-based, C57BL/6 mice

CLAI YSTVASSLV LLV [SEQ ID NO:9]
lysis of hemagglutinin-loaded dendritic cells (51Cr release): significant lysis
